Usually half-life stands for the time in which the quantity being followed falls by half. In general, logD refers to the decadic logarithm of the distribution of all forms, ionised or not, between an organic phase and buffer at a given pH. High values mean a more lipophilic compound, low ones a more hydrophilic compound. The term solubility denotes the dissolved amount per volume that the medium holds. Read a high solubility as much dissolved substance.

Consider 37 molecules from ChEMBL document CHEMBL5376004, “Discovery and Development of Quinazolinones and Quinazolinediones for Ameliorating Nonalcoholic Fatty Liver Disease (NAFLD) by Modulating COP1-ATGL Axis” (J Med Chem, 2023).

For one data set, the target named is COP1-AGTL (Homo sapiens) (UniProt Q96AD5+Q8NHY2). As to the kind of experiment: Induction of COP1 to ATGL stabilization (unknown origin) expressed in HEK293-A cells assessed as reduction in ATGL ubiquitination incubated for 6 hrs by Western blotting analysis. Format: cell-based. On the technique in general: A western blot detects proteins with antibodies after separation by electrophoresis.

Data set [1] in a line: Metabolic stability in mouse liver microsomes assessed as half life. Format: ADME, Microsome. Background: Liver microsomes are a subcellular fraction often used to study metabolism.
The nature of data set [2]: Metabolic stability in human liver microsomes assessed as half life. The class given is ADME, Microsome.
Data set [3] is described as follows: Metabolic stability in mouse liver microsomes assessed as hepatic blood flow. The class given is ADME, Microsome. The following applies: read-out: QH.
Data set [4] in a line: Metabolic stability in mouse liver microsomes assessed as intrinsic clearance per mg of protein. Particulars: read-out: CLH. The class given is ADME, Microsome.
A short description of data set [5]: Metabolic stability in human liver microsomes assessed as hepatic blood flow. Format: ADME, Microsome. The following applies: read-out: QH.
The nature of data set [6]: Metabolic stability in human liver microsomes assessed as intrinsic clearance per mg of protein. Format: ADME, Microsome. The following applies: read-out: CLH.
Data set [7] can be described thus: Stability in mouse plasma assessed as compound remaining after 2 hrs. Format: ADME, cell-free. Particulars: read-out: Stability.
A short description of data set [8]: Lipophilicity, logD of compound. The class given is physicochemical. The following applies: octanol/water.
Data set [9] can be described thus: Aqueous solubility of compound at pH 7.4. The class given is physicochemical.
Data set [10] in a line: Stability in human plasma assessed as compound remaining after 2 hrs. Particulars: read-out: Stability. Format: ADME, cell-free.
The subject of another data set is Hepatocyte. As to the kind of experiment: Upregulation of ATGL protein level in mouse primary hepatocytes incubated for 24 hrs by Western blotting analysis. The class given is functional, cell-based. Particulars: dose 10-500 nM.
The next data set relates to HepG2. As to the kind of experiment: Reduction in lipid droplets in human HepG2 cells by […] staining based confocal microscopic analysis. Format: functional, cell-based.

Each structure is given as a SMILES string. Converted amounts (≈) assume the structure as drawn. The source made the active and inactive calls. The calls are words filed in the database; no cut-off is given here.

Chain of COP1-AGTL (Homo sapiens) (Q8NHY2 whole entry, looked up): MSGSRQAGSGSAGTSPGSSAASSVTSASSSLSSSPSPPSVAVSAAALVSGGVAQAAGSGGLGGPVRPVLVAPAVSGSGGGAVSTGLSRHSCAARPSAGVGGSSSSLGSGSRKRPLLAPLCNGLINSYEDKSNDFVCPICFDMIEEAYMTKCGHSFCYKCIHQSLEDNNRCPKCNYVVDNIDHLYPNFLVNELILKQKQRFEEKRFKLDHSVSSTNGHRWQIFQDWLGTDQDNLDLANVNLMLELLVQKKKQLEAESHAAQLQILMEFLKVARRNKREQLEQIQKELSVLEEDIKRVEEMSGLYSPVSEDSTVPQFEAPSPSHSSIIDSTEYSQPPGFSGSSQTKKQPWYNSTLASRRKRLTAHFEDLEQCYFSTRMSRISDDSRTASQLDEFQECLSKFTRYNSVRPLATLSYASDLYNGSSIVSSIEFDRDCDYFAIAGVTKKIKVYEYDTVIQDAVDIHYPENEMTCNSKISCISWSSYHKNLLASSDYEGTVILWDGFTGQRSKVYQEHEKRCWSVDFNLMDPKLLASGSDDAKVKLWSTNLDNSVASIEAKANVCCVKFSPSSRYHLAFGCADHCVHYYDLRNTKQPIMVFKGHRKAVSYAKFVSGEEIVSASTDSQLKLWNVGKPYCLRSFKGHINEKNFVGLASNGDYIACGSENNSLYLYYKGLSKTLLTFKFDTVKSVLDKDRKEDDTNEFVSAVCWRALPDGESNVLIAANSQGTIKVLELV
Chain of COP1-AGTL (Homo sapiens) (Q96AD5 whole entry, looked up): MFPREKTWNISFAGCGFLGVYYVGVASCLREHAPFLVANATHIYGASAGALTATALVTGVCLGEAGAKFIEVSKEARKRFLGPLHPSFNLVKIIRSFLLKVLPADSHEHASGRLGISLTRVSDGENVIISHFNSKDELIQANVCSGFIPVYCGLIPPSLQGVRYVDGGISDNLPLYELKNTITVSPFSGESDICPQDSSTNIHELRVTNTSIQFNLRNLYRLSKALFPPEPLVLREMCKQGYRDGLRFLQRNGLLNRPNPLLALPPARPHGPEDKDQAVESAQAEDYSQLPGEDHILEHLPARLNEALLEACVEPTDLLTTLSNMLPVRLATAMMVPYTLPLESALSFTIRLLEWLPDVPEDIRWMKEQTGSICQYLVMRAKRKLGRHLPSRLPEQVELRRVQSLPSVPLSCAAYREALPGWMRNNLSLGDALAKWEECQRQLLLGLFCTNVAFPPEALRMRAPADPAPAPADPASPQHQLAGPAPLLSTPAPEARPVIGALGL

In the case of `COCCn1cnc2ccc(NC(=O)Nc3ccc(OC)cc3)cc2c1=O`, the result on COP1-AGTL (Homo sapiens) was Active.
Turning to `COCCn1cnc2ccc(NC(=O)Nc3cccc(C(=O)c4ccccc4)c3)cc2c1=O`, the outcome on COP1-AGTL (Homo sapiens) was inactive.
For `COCCn1cnc2ccc(NC(=O)Nc3cccc(C(O)C(F)(F)F)c3)cc2c1=O` (stereo unspecified), the half-life turned out to be 0.367 h in data set [1] and 0.753 h in data set [2]. The hepatic extraction ratio in [3] turned out to be 0.462; in [5], 0.415. Further, the microsomal CLint was 31.7 µL/min/mg in data set [4] and 15.3 µL/min/mg in [6]. The result on COP1-AGTL (Homo sapiens) was inactive. Also, the remaining at 2 h was 118% in [7] and 74.6% in data set [10]. Besides, in data set [8], the logD stood at 2.54. Also, in data set [9], the concentration in solution (solubility) was 27 µg/mL (≈ 61.9 µM).
As to `COCCn1cnc2ccc(NC(=O)Nc3ccc(C(F)(F)F)cc3)cc2c1=O`, at COP1-AGTL (Homo sapiens), the result was inactive.
Consider `COCCn1cnc2ccc(NC(=O)NC3CCN(C)CC3)cc2c1=O`, for which the outcome at COP1-AGTL (Homo sapiens) was inactive.
As for `COCCn1cnc2ccc(NC(=O)Nc3cccc(C(C)=O)c3)c(-c3ccc(F)cc3)c2c1=O`, the half-life in [1] was found to be 0.025 h. Besides, the hepatic extraction ratio in data set [3] was found to be 0.925. The microsomal CLint in data set [4] was 456 µL/min/mg. Also, on COP1-AGTL (Homo sapiens), the result was inactive. The same molecule showed a logD in data set [8] of 1.9. Besides, in [9], the solubility was 31.9 µg/mL (≈ 67.2 µM). Moreover, the remaining at 2 h in [10] amounted to 44.9%.
With `CC(=O)c1cccc(NC(=O)Nc2ccc3ncn(CCN(C)C)c(=O)c3c2)c1`, the result on COP1-AGTL (Homo sapiens) was inactive.
On to `COCCn1cnc2ccc(NC(=O)Nc3cccc(C(=O)C(F)(F)F)c3)cc2c1=O`, for which the half-life in data set [1] turned out to be 1.41 h; in data set [2] it was 1.5 h. Also, the hepatic extraction ratio in [3] is 0.183; in data set [5], 0.262. The figures for the microsomal CLint in data set [4] and in [6] were 8.2 µL/min/mg and 7.7 µL/min/mg, respectively. The result on COP1-AGTL (Homo sapiens) was inactive. The remaining at 2 h in data set [7] was determined as 52.6%; in data set [10], 62%. For the same molecule, in [8], the logD turned out to be 4.25. Besides, the solubility in data set [9] was determined as 9.6 µg/mL (≈ 22.1 µM).
On to `COCCn1cnc2ccc(NC(=O)Nc3cccc(C(C)=O)c3)c(Br)c2c1=O`, for which the half-life in [1] came to 1.78 h. Further, in data set [3], the hepatic extraction ratio was 0.167. In addition, the microsomal CLint in data set [4] was 7.5 µL/min/mg. The outcome at COP1-AGTL (Homo sapiens) was Active. In data set [8], this molecule yielded a logD of 1.95. Also, the solubility in [9] was determined as 3.4 µg/mL (≈ 7.4 µM). Besides, the remaining at 2 h in data set [10] came out at 10.3%.
As for `COCCn1cnc2ccc(NC(=O)Nc3cccc(C(C)=O)c3)c(-c3ccc(OC)nc3)c2c1=O`, the result on COP1-AGTL (Homo sapiens) was inactive.
Consider `COCCn1c(=O)c2cc(NC(=O)Nc3cccc(C(C)=O)c3)ccc2n(C)c1=O`, for which the result on COP1-AGTL (Homo sapiens) was Active.
With `CCc1cccc(NC(=O)Nc2ccc3ncn(CCOC)c(=O)c3c2)c1`, the outcome at COP1-AGTL (Homo sapiens) was inactive.
The same measure, in the same setting: next, `CCCCn1cnc2ccc(NC(=O)Nc3cccc(C(C)=O)c3)cc2c1=O`: “inactive”.
As to `COCCn1c(=O)c2cc(NC(=O)Nc3cccc(C(C)=O)c3)ccc2n(C(C)C)c1=O`, the half-life in data set [1] came out at 0.272 h; in [2], 0.793 h. Further, the results for the hepatic extraction ratio in [3] and in data set [5] were 0.536 and 0.403, respectively. For the same molecule, the microsomal CLint came out at 42.6 µL/min/mg in data set [4] and 14.6 µL/min/mg in data set [6]. On COP1-AGTL (Homo sapiens), the result was inactive. Also, the results for the remaining at 2 h in data set [7] and in data set [10] were 90.7% and 80.8%, respectively. Besides, the logD in data set [8] was determined as 2.67. This molecule yielded a solubility in [9] of 2.8 µg/mL (≈ 6.39 µM).
Regarding `COCCn1cnc2ccc(NC(=O)Nc3ccccc3C(F)(F)F)cc2c1=O`, the result at COP1-AGTL (Homo sapiens) was inactive.
As for `CC(=O)c1cccc(NC(=O)Nc2ccc3ncn(CCCN4CCOCC4)c(=O)c3c2)c1`, the outcome on COP1-AGTL (Homo sapiens) was inactive.
For `CC(=O)c1cccc(NC(=O)Nc2ccc3ncn(CCN4CCCCC4)c(=O)c3c2)c1`, the result at COP1-AGTL (Homo sapiens) was inactive.
`COCCn1cnc2ccc(NC(=O)N(C)C)cc2c1=O`: the result at COP1-AGTL (Homo sapiens) was inactive.
In the case of `COCCn1c(=O)c2cc(NC(=O)Nc3cccc(C(C)=O)c3)ccc2n(CCN2CCCC2)c1=O`, the half-life was determined as 0.895 h in data set [1] and 2.56 h in [2]. Also, the hepatic extraction ratio in data set [3] came out at 0.26; in data set [5], 0.175. Also, the microsomal CLint in data set [4] came out at 13 µL/min/mg; in [6] it was 4.6 µL/min/mg. For the same molecule, the result at COP1-AGTL (Homo sapiens) was Active. Further, the results for the remaining at 2 h in [7] and in [10] were 50.3% and 32.8%, respectively. This molecule also displayed a logD in data set [8] of 2.58. Besides, the concentration in solution in data set [9] (solubility) came to 124 µg/mL (≈ 252 µM).
`COCCn1cnc2ccc(NC(=O)Nc3cccc(C(C)=O)c3)c(-c3ccc(C(F)(F)F)cc3)c2c1=O`: on COP1-AGTL (Homo sapiens), the result was inactive.
On the same count and under the same terms, the entry for `COCCn1cnc2ccc(NC(=O)Nc3cccc(C(C)=O)c3)c(-c3ccc(OC)cc3)c2c1=O` is “inactive”; for `COCCn1cnc2ccc(NC(=O)Nc3ccc(F)cc3)cc2c1=O` it is “inactive”.
For the molecule `COCCn1cnc2ccc(NC(=O)Nc3cccc(OC)c3)cc2c1=O`, the half-life in data set [1] was 1.05 h; in data set [2], 2.4 h. In addition, the Activity result with Hepatocyte is “Dose-Dependent Effect”. Further, the hepatic extraction ratio in [3] was found to be 0.231; in data set [5], 0.184. Moreover, the microsomal CLint is 11 µL/min/mg in data set [4] and 4.9 µL/min/mg in [6]. Further, the outcome at COP1-AGTL (Homo sapiens) and in the data set with HepG2 was Active. For the same molecule, the results for the remaining at 2 h in [7] and in data set [10] were 84.5% and 73.9%, respectively. The pH-dependent lipophilicity (logD) in data set [8] was 3.02. In data set [9], the solubility came to 21.5 µg/mL (≈ 58.4 µM).
On to `COCCn1cnc2ccc(NC(=O)Nc3cccc(C(F)(F)F)c3)cc2c1=O`, for which the outcome on COP1-AGTL (Homo sapiens) was inactive.
Turning to `COCCn1c(=O)[nH]c2ccc(NC(=O)Nc3cccc(C(C)=O)c3)cc2c1=O`, the half-life in data set [1] stood at 1.25 h; in data set [2], 7.16 h. The hepatic extraction ratio in data set [3] was 0.228; in [5], 0.076. In addition, the microsomal CLint in data set [4] stood at 11.4 µL/min/mg; in [6], 1.8 µL/min/mg. The outcome on COP1-AGTL (Homo sapiens) was Active. Also, the remaining at 2 h in data set [7] was 68.4%; in [10] it was 97.4%. In [8], this molecule gave a logD of 2.17. The molecule further had a solubility in data set [9] of 0.8 µg/mL (≈ 2.02 µM).
For the molecule `CC(=O)c1cccc(NC(=O)Nc2ccc3ncn(CCN4CCOCC4)c(=O)c3c2)c1`, at COP1-AGTL (Homo sapiens), the outcome was inactive.
Consider `COCCCn1cnc2ccc(NC(=O)Nc3cccc(C(C)=O)c3)cc2c1=O`, for which the result on COP1-AGTL (Homo sapiens) was Active.
For `COCCn1cnc2ccc(NC(=O)N3CCCCC3)cc2c1=O`, on COP1-AGTL (Homo sapiens), the result was inactive.
Turning to `CC(C)[N+](C)(CCOC(=O)C1c2ccccc2Oc2ccccc21)C(C)C` [PROPANTHELINE], the remaining at 2 h in data set [7] was 0%.
In the case of `COCCn1cnc2ccc(NC(=O)Nc3cccc(C(C)=O)c3)c(-c3ccccc3)c2c1=O`, the result at COP1-AGTL (Homo sapiens) was Active.
For `CCn1cnc2ccc(NC(=O)Nc3cccc(C(C)=O)c3)cc2c1=O`, the result at COP1-AGTL (Homo sapiens) was inactive.
Regarding `COCCn1cnc2ccc(NC(=O)Nc3cccc(C(C)=O)c3)c(C3=CCNCC3)c2c1=O`, the result on COP1-AGTL (Homo sapiens) was inactive.
On the same count and under the same terms, the entry for `COCCn1cnc2ccc(NC(=O)Nc3ccccc3)cc2c1=O` is “inactive”.
As for `COCCn1cnc2ccc(NC(=O)Nc3ccccc3OC)cc2c1=O`, the outcome at COP1-AGTL (Homo sapiens) was inactive.
The same measure, in the same setting: the entry for `COCCn1cnc2ccc(NC(=O)Nc3cccc(C(C)=O)c3)c(C3CCNCC3)c2c1=O` is “inactive”; for `COCCn1cnc2ccc(NC(=O)Nc3cccc(C(C)O)c3)cc2c1=O` (stereo unspecified) it is “inactive”.
Regarding `CC(=O)c1cccc(NC(=O)Nc2ccc3nc[nH]c(=O)c3c2)c1`, the outcome at COP1-AGTL (Homo sapiens) was inactive.
